# Data taken from patent publication US20240307350A1, “5-METHOXY-N,N-DIMETHYLTRYPTAMINE (5-MEO-DMT) FOR TREATING DEPRESSION” (GH RESEARCH IRELAND LIMITED, priority 2019, published 2024).
# System: healthy volunteers
# Assay: Clinical trial of inhaled 5-MeO-DMT in healthy volunteers: safety and tolerability
# Type: in vivo, human
# Experimental: A clinical trial was performed in which 5-MeO-DMT free base (purity not less than 99%) at different dose levels was administered via inhalation (as described in Example 1) in a single day to healthy volunteers who had prior experiences with the use of synthetic or naturally-occurring psychedelics. The trial was reviewed and approved by the relevant national competent authority and local medical ethics committee. The trial consisted of two parts: Part A, where single doses of 5-MeO-DMT dosage amounts of 2 mg, 6 mg, 12 mg and 18 mg were administered; and Part B, where an initial 5-MeO-DMT dosage amount of 6 mg was administered, and then, unless the participant had already experienced a peak psychedelic experience based on the PPEQ or the supervising physician had decided that further dose increases were inappropriate based on observed side effects, further subsequent dosage amounts of 12 mg and 18 mg were administered with about 3 hours in between each administration. Participants in Part A only received one dose and were not allowed to receive higher doses in later parts of Part A and were not allowed to participate in Part B. Participants were closely monitored for 3.5 hours after the last dose, with additional follow-up visits 1 day and 7 days after dosing. Various safety related measures (e.g., adverse event reporting, safety laboratory analyses, vital signs, ECG, CADSS, PVT, DSST, Prospective Memory Task (PMT)) as well as measures of the intensity of the psychedelic effects (MEQ30, ASC, PPEQ, subjective description of the psychedelic experience) were recorded. Pharmacokinetic analysis of 5-MeO-DMT and bufotenine plasma levels was performed at 1 hour and 3 hours after drug administration in Part A, and at 3 hours after drug administration in Part B.
# 18 participants were recruited into Part A of the study and 4 participants were recruited into Part B. 9 Participants were female and 13 participants were male. Median age was 29 years (range: 19 to 42 years). In Part A, 4 participants received 2 mg, 6 participants received 6 mg, 4 participants received 12 mg and 4 participants received 18 mg of 5-MeO-DMT. In Part B, 1 participant received 6 mg, 2 participants received 6 mg and then 12 mg and one participant received 6 mg, 12 mg and then 18 mg of 5-MeO-DMT.
# [1] = Part A, 2 mg (n = 4), Administration day, mild
# [2] = Part A, 6 mg (n = 6), Administration day, mild
# [3] = Part A, 6 mg (n = 6), Day 1, mild
# [4] = Part A, 18 mg (n = 4), Administration day, mild
# [5] = Part A, 18 mg (n = 4), Day 1, mild
# [6] = Part B, 12 mg (n = 3), after 6 mg, Administration day, mild
structure (smiles),measurement,setting,value
"COc1ccc2[nH]cc(CCN(C)C)c2c1 [5-MeO-DMT, 5-methoxy-N,N-dimethyltryptamine]","ECG, safety laboratory analyses, CADSS and cognitive tests (PVT, DSST, PMT)",2 mg to 18 mg via inhalation,unremarkable
same,inhalation-related adverse events,"Part A and Part B, 2 mg to 18 mg via inhalation",No inhalation-related adverse events
same,Adverse events reported: Nausea (number of volunteers),[1],2
same,Adverse events reported: Tachycardia (number of volunteers),[1],1
same,Adverse events reported: Vision blurred (number of volunteers),[1],1
same,Adverse events reported: Anxiety (number of volunteers),[2],1
same,Adverse events reported: Headache (number of volunteers),[2],1
same,Adverse events reported: Nausea (number of volunteers),[2],1
same,Adverse events reported: Clumsiness (number of volunteers),[3],1
same,Adverse events reported: Feeling hot (number of volunteers),[3],1
same,Adverse events reported: Headache (number of volunteers),[3],1
same,Adverse events reported: Anxiety (number of volunteers),"Part A, 12 mg (n = 4), Administration day, mild",1
same,Adverse events reported: Heart rate increased (number of volunteers),"Part A, 12 mg (n = 4), Administration day, this event was moderate",1^1
same,Adverse events reported: Headache (number of volunteers),[4],1
same,Adverse events reported: Nausea (number of volunteers),[4],1
same,Adverse events reported: Abnormal dreams (number of volunteers),[5],1
same,Adverse events reported: Fatigue (number of volunteers),[5],1
same,Adverse events reported: Hallucination (number of volunteers),[5],1
same,Adverse events reported: Hyperacusis (number of volunteers),[5],1
same,Adverse events reported: Insomnia (number of volunteers),[5],1
same,Adverse events reported: Mental fatigue (number of volunteers),[5],1
same,Adverse events reported: Flashback (number of volunteers),"Part A, 18 mg (n = 4), Day 7, mild",1
same,Adverse events reported: Nausea (number of volunteers),"Part B, 6 mg (n = 4), Administration day, mild",1
same,Adverse events reported: Fatigue (number of volunteers),[6],1
same,Adverse events reported: Head discomfort (number of volunteers),[6],1
same,Adverse events reported: Headache (number of volunteers),[6],1
same,Adverse events reported: Nausea (number of volunteers),[6],1
same,Adverse events reported,"Part B, 18 mg (n = 1), after 12 mg and 6 mg",None reported
same,changes in vital parameters,"shortly after administration, 2 mg to 18 mg via inhalation","temporary, not clinically relevant increase in heart rate and blood pressure"
